Test results reported in patent publication US10472334B2, “Small molecules for inhibiting male fertility” (The University of North Carolina at Chapel Hill, priority 2014, dated 2019).
Like-named read-outs stand apart in the source and are kept apart here. Each block holds one molecule with its values, some of them ahead of it.

Tested on: human sperm motility
Experiment: Computer-assisted sperm analysis (CASA) of human sperm motility
Assay type: cell-based
Method: In another embodiment, a computer-assisted sperm analysis (CASA) can be used as a live cell compound screen for determining the effect of compounds on human sperm motility. Additionally, to facilitate the IC50 evaluation of compounds using different ejaculates, reducing inter-assay variation due to differences in sperm quality in different semen samples, an index of relative motility inhibition (RMI) was developed.
This is calculated as: RMI=[% motility*VSL]; percentage of motile sperm (% motility) or the percentage of progressively motile sperm (% progressive motility, RPMI) multiplied by the straight-line velocity (VSL); the average velocity measured in a straight line from the beginning to the end of a track in μm/sec.
Normalized RMI can be calculated by dividing the RMI of each experimental condition by its respective DMSO control.
Computer-assisted sperm analysis (CASA) was used as a live cell compound screen for determining the effect of compounds on human sperm motility. Computer-assisted sperm analysis (CASA) was performed using the approach taught in Mitra et al., Biology of Reproduction, Vol. 82, p 491 (2010), to determine the parameters of the control versus compound-treated spermatozoa. The parameters measured are: average pathway velocity (VAP: the average velocity of the smoothed cell path in 1 m/sec), the straight-line velocity (VSL: the average velocity measured in a straight line from the beginning to the end of track in 1 m/sec), the curvilinear velocity (VCL: the average velocity measured over the actual point-to-point track of the cell in 1 m/sec), the lateral head amplitude (ALH: amplitude of lateral head displacement in 1 m), the beat cross-frequency (BCF: frequency of sperm head crossing the sperm average path in Hz), the straightness (STR: the average value of the ratio VSL/VAP in %), and the linearity (LIN: the average value of the ratio VSL/VCL in %). The sperm motility parameters are assessed in pre-warmed (37° C.) two- or four-chambered 20-mm Leja slides, loading 5 μL or 2 μL, respectively, of the samples in each chamber and immediately using CASA. This computerized measuring device included a phase-contrast microscope (Olympus CX41), a camera, a mini-therm stage warmer, an image digitizer, and a computer to store and analyze data. The software used for data analysis is the HTR Ceros 12.3 (Hamilton-Thorne Biosciences). A range of 13 to 20 fields are scanned from each chamber. Progressive cells had to have a minimum of 25 μm/sec VAP and 80% of STR.
To facilitate the IC50 evaluation of compounds using different ejaculates, reducing inter-assay variation due to differences in sperm quality in different semen samples, an index of relative motility inhibition (RMI) was developed. This is calculated as: RMI=[% motility*VSL]; percentage of motile sperm (% motility) or the percentage of progressively motile sperm (% progressive motility, RPMI) multiplied by the straight-line velocity (VSL); the average velocity measured in a straight line from the beginning to the end of a sperm track in μm/sec. Normalized RMI (RPMI) was calculated by dividing the RMI of each experimental condition by its respective DMSO control.
The analysis of sperm motility was carried out with computer-assisted sperm analysis (CASA) (Ceros version 12.3 software; Hamilton-Thorne), using the techniques taught in Mitra et al., Biology of Reproduction, Vol. 82, p 491 (2010).

IC50 (Homo sapiens, Sperm, read-out: CASA): 11.4 µM
Molecule: CCOC(=O)CSc1nc(=O)c(NCC(=O)OC)n[nH]1 [Compound B4, methyl N-{3-[(2-ethoxy-2-oxoethyl)sulfanyl]-5-oxo-2,5-dihydro-1,2,4-triazin-6-yl}glycinate]

IC50 (Homo sapiens, Sperm, FIG. 10, RMI using % progressive motility, read-out: IC50 in terms of progressive motility): ~3.4 µM
Molecule: COC(=O)NNc1nc(Nc2ccc(NC(=O)OC)c(O)c2)nc(SCC(C)=O)n1 [EP012]

IC50 (FIGS. 3 and 4, read-out: IC50, CASA, RMI (relative motility)): ~9 µM
EC50 (calculated EC50 value, read-out: EC50 for inhibiting sperm motility): 8.8 µM
B1: SEMG1: semenogelin protein that binds EPPIN and inhibits progressive motility of ejaculate spermatozoa (protein, UniProt P04279 24-462, looked up)
Semenogelin-1: QKGGSKGRLPSEFSQFPHGQKGQHYSGQKGKQQTESKGSFSIQYTYHVDANDHDQSRKSQQYDLNALHKTTKSQRHLGGSQQLLHNKQEGRDHDKSKGHFHRVVIHHKGGKAHRGTQNPSQDQGNSPSGKGISSQYSNTEERLWVHGLSKEQTSVSGAQKGRKQGGSQSSYVLQTEELVANKQQRETKNSHQNKGHYQNVVEVREEHSSKVQTSLCPAHQDKLQHGSKDIFSTQDELLVYNKNQHQTKNLNQDQQHGRKANKISYQSSSTEERRLHYGENGVQKDVSQSSIYSQTEEKAQGKSQKQITIPSQEQEHSQKANKISYQSSSTEERRLHYGENGVQKDVSQRSIYSQTEKLVAGKSQIQAPNPKQEPWHGENAKGESGQSTNREQDLLSHEQKGRHQHGSHGGLDIVIIEQEDDSDRHLAQHLNNDRNPLFT
